From patent US12606541B2, “PPARg modulators and methods of use” (Eisai R&D Management Co., Ltd., priority 2020, dated 2026)
Read-outs that look alike come from different tables or passages of the source.

How the values were obtained:
His6-TEV-PPARγ-(234-505) = molecular target: T1, His6-TEV-PPARγ-(234-505) (Homo sapiens, UniProt P37231); experiment: TR-FRET Assay to Measure Co-R Peptide Recruitment to PPARγ; type: biochemical; conditions: Co-R peptide (SMRT-ID2) recruitment; top final concentration 20 μM; read-out: TR-FRET i-Ag; AC50
T1 construct: The His6-TEV-PPARγ-(234-505) protein for assay was expressed and purified; TEV cleavage site (N); made in house
T1 sequence (P37231 234-505): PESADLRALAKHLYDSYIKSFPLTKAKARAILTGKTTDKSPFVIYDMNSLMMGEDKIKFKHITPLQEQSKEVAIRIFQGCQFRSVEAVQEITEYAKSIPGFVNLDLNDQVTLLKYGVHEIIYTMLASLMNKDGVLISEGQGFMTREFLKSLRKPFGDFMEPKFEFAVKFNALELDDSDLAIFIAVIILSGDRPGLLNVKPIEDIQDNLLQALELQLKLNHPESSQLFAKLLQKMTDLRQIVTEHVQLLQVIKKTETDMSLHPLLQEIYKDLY
Procedure, shortened: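 Corepressor recruitment is measured by adding terbium-labeled anti-His antibody and FITC SMRT-ID2 peptide, at 5 and 200 nM final, after a 20-minute room-temperature protein–compound incubation. After one further hour, signal is converted to percent response between DMSO and 500 nM T0070907 wells.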

UM-UC-9 engineered cells = experiment: Cell proliferation / short-term viability assay, CellTiter-Glo 144 h; type: cell-based, human; conditions: read-out: CTGlo 144 h UMUC9.5, G150
Procedure: Cell Seeding for Proliferation Assay
UM-UC-9 engineered cells were cultured in Dulbecco's Modified Eagle Medium (DMEM) supplemented with 10% FBS, 25 mM glucose (high glucose), 4.0 mM L-glutamine, 2.0 mM GlutaMAX™, 1.0 mM pyruvate, 1.0% non-essential amino acids (NEAA) in a 95% humidified incubator at 37° C. with 5% CO2. Cell banks of UM-UC-9 engineered assay-ready cells (ARCs) were prepared from a very active growth stage. Vials of ARCs containing approximately 5×10^6 cells per vial were stored in liquid nitrogen vapor phase cryostorage until use.
For making assay plates, ARCs were recovered from cryostorage, strained in a […] cell strainer, verified for cell viability >90% and counted using a cell counter (Cellometer Auto 1000, Nexelom). Each cell line was seeded into 384-well plates (50 μl/well) using DMEM medium at a density previously determined to be in log growth phase 7 days post-seeding (500 cells/well) using a bulk reagent dispenser (Multidrop™ Combi, Thermo Scientific) with a large-bore plastic-tip cassette pre-sanitized with 70% ethanol. One plate of cells was designated as the pretreatment time-zero (T0) control. Freshly seeded plates were allowed to sit lidded for 30 minutes within a biosafety cabinet for cells to settle distributed within the plate wells uniformly and then placed into an automated incubator (STX110, Liconic) at 37° C., 5% CO2, and 95% relative humidity.
Preparation of Test Compound in Assay-Ready Plate
Compounds were stored in a low-temperature sample archive as 10 mM dimethyl sulfoxide (DMSO) solutions at −20° C. under reduced humidity (−45° C. dew point) and protected from light. All samples in the automated archive are stored in 2D barcoded polypropylene tubes, tracked through a laboratory information management system (LIMS), and have been verified for identity and purity by NMR (Chemistry, H3 Biomedicine) and by LCMS (Analytical Chemistry, H3 Biomedicine) at the time of sample registration. Identity by mass matching and purity are again verified at the time of sample request fulfillment by redundant LCMS methods (acidic and basic separation protocols; Analytical Chemistry, H3 Biomedicine). Samples retrieved from low-temperature archive storage were solubilized by heated sonication (Bransonic® Ultrasonic Bath, Branson), transferred (Microlab Starlet, Hamilton) and serially-diluted (Viaflo Assist, Integra) by low-volume liquid handlers, and tracked in LIMS by automation log files to create a ID barcoded master dose-response plate (MDR) to serve as a standard source for all assay-ready plates (ARP) used within an experiment. ARPs prepared by acoustic transfer (ATS-100, EDC) of nL volumes from the MDR source were heat-sealed (PlateLoc, Agilent) and stored at −20° C. prior to use (<7 days from production). Tracking of liquid transfers via acoustic dispenser log files were used to update the LIMS system for all ARP plate maps.
Measurement of Pretreatment Control Cells and Sample Anti-Proliferative Effects on Treated Cells
On day 0 (pretreatment cells) or day 7 (treated cells), a cell proliferation assay was performed using an automated robotic assay platform (ACell, High-Res Biosolutions). Cell ARP's were removed from incubation, their plate lid discarded, and using a bulk reagent dispenser (Multidrop™ Combi, Thermo Scientific with a small-bore metal-tip cassette) 25 μL (1/2 volume) of Cell Titer-Glo® 2.0 Cell Viability Assay reagent (Promega) was added to wells of columns 1-23 (column 24 will be used as plate background or positive control). Cell ARP's were incubated at room temperature in an automation hotel position for a total of 1.0 minute while the next plate was delivered to the bulk reagent dispenser and then lid-free cell ARP's were returned to incubate at 37° C. for 2.5 hours. […]

| SMILES | AC50 (His6-TEV-PPARγ-(234-505)) | IC50 (UM-UC-9 engineered cells; Homo sapiens, UM-UC-9, 144 h) | IC50 (UM-UC-9 engineered cells) |
| --- | --- | --- | --- |
| COc1cc(-c2cc(C(=O)N3CCC(C(=O)NC4COC(C)OC4)CC3)n[nH]2)c(Cl)cn1 (mixture of isomers) [Example 121, 1-[5-(5-Chloro-2-methoxypyridin-4-yl)-1H-pyrazole-3-carbonyl]-N-(2-methyl-1,3-dioxan-5-yl) piperidine-4-carboxamide] | 807 nM | 2220 nM | – |
| COc1cc(-c2cc(C(=O)N3CCC(C(=O)NC4CCC(O)(C(F)(F)F)CC4)CC3)n[nH]2)c(Cl)cn1 (mixture of isomers) [Example 144, 1-(5-(5-chloro-2-methoxypyridin-4-yl)-1H-pyrazole-3-carbonyl)-N-(4-hydroxy-4-(trifluoromethyl)cyclohexyl)piperidine-4-carboxamide] | 44.7 nM | 334 nM | – |
| COc1cc(-c2cc(C(=O)N3CCC(C(=O)NCC4CC(OC)C4)CC3)n[nH]2)c(Cl)cn1 (mixture of isomers) [Example 145, 1-(5-(5-chloro-2-methoxypyridin-4-yl)-1H-pyrazole-3-carbonyl)-N-((3-methoxycyclobutyl)methyl)piperidine-4-carboxamide] | 688 nM | 4120 nM | – |
| COc1cc(-c2cc(C(=O)N3CCC(C(=O)NC4CC(C)CC(C)(C)C4)CC3)n[nH]2)c(Cl)cn1 (mixture of isomers) [Example 150, 1-(5-(5-chloro-2-methoxypyridin-4-yl)-1H-pyrazole-3-carbonyl)-N-(3,3,5-trimethylcyclohexyl)piperidine-4-carboxamide] | 269 nM | 779 nM | – |
| COc1cc(-c2cc(C(=O)N3CCC(C(=O)NC4(C)CCC(C)CC4)CC3)n[nH]2)c(Cl)cn1 (mixture of isomers) [Example 163, 1-(5-(5-chloro-2-methoxypyridin-4-yl)-1H-pyrazole-3-carbonyl)-N (1,4-dimethylcyclohexyl)piperidine-4-carboxamide] | 447 nM | 747 nM | – |
| COc1cc(-c2cc(C(=O)N3CCC(C(=O)NC4[C@@H]5CCC[C@H]4CC5)CC3)n[nH]2)c(F)cn1 (mixture of isomers) [Example 165, N-(bicyclo[3.2.1]octan-8-yl)-1-(5-(5-fluoro-2-methoxypyridin-4-yl)-1H-pyrazole-3-carbonyl)piperidine-4-carboxamide] | 179 nM | 435 nM | – |
| COc1cc(-c2cc(C(=O)N3CCC(C(=O)NC4CCC(O)(C(F)(F)F)CC4)CC34CC4)n[nH]2)c(F)cn1 (mixture of isomers) [Example 169, (R)-4-(5-(5-fluoro-2-methoxypyridin-4-yl)-1H-pyrazole-3-carbonyl)-N-((1r,4R)-4-hydroxy-4-(trifluoromethyl)cyclohexyl)-4-azaspiro[2.5]octane-7-carboxamide and (S)-4-(5-(5-fluoro-2-methoxypyridin-4-yl)-1H-pyrazole-3-carbonyl)-N-((1r,4S)-4-hydroxy-4-(trifluoromethyl)cyclohexyl)-4-azaspiro[2.5]octane-7-carboxamide] | 4.5 nM | – | 2.1 nM |
| COc1cc(-c2cc(C(=O)N3CCC(C(=O)NCc4cccc(Cl)c4)CC3C)n[nH]2)c(Cl)cn1 (mixture of isomers) [Example 172, 1-(5-(5-chloro-2-methoxypyridin-4-yl)-1H-pyrazole-3-carbonyl)-N-(3-chlorobenzyl)-2-methylpiperidine-4-carboxamide] | 16.5 nM | 163 nM | – |
| COc1cc(-c2cc(C(=O)N3CCC(C(=O)NCc4cccc(Cl)c4)C(C)C3)n[nH]2)c(Cl)cn1 (mixture of isomers) [Example 173, 1-(5-(5-chloro-2-methoxypyridin-4-yl)-1H-pyrazole-3-carbonyl)-N-(3-chlorobenzyl)-3-methylpiperidine-4-carboxamide] | 674 nM | 2100 nM | – |
| COc1cc(-c2cc(C(=O)N3CCC(C(=O)NCc4cccc(Cl)c4)C(F)C3)n[nH]2)c(Cl)cn1 (mixture of isomers) [Example 177, 1-(5-(5-chloro-2-methoxypyridin-4-yl)-1H-pyrazole-3-carbonyl)-N-(3-chlorobenzyl)-3-fluoropiperidine-4-carboxamide] | 29.8 nM | 68.9 nM | – |
| COc1cc(-c2cc(C(=O)N3CCC(C(=O)NC4CC(C)(F)C4)CC3)n[nH]2)c(Cl)cn1 (mixture of isomers) [Example 246, 1-(5-(5-chloro-2-methoxypyridin-4-yl)-1H-pyrazole-3-carbonyl)-N-(3-fluoro-3-methylcyclobutyl)piperidine-4-carboxamide] | 383 nM | 1230 nM | – |
| COc1cc(-c2cc(C(=O)N3CCC(C(=O)NC4COC(C)C4)CC3)n[nH]2)c(Cl)cn1 (mixture of isomers) [Example 247, 1-(5-(5-chloro-2-methoxypyridin-4-yl)-1H-pyrazole-3-carbonyl)-N-(5-methyltetrahydrofuran-3-yl)piperidine-4-carboxamide] | 565 nM | 2230 nM | – |
| COc1cc(-c2cc(C(=O)N3CCC(C(=O)NC4c5ccccc5OCC4OC)CC3)n[nH]2)c(Cl)cn1 (mixture of isomers) [Example 252, 1-(5-(5-chloro-2-methoxypyridin-4-yl)-1H-pyrazole-3-carbonyl)-N-(3-methoxychroman-4-yl)piperidine-4-carboxamide] | 182 nM | 1150 nM | – |
| COc1cc(-c2cc(C(=O)N3[C@@H]4CC[C@H]3C[C@H](C(=O)NC3CCC5(CCO5)CC3)C4)n[nH]2)c(F)cn1 (mixture of isomers) [Example 297, (1R,3S,5S)-8-[5-(5-fluoro-2-methoxypyridin-4-yl)-1H-pyrazole-3-carbonyl]-N-[1-oxaspiro[3.5]nonan-7-yl]-8-azabicyclo[3.2.1]octane-3-carboxamide] | 120 nM | 383 nM | – |
| Cc1cc(-c2cc(C(=O)N3CC[C@@H](C(=O)NC4CCC5(CCO5)CC4)CC34CC4)n[nH]2)ncn1 (mixture of isomers) [Example 300-A, (R)-4-(5-(6-methylpyrimidin-4-yl)-1H-pyrazole-3-carbonyl)-N-(1-oxaspiro[3.5]nonan-7-yl)-4-azaspiro[2.5]octane-7-carboxamide] | 18000 nM | > 4000 nM | – |
| COc1cc(-c2cc(C(=O)N3C4CCC3CC(C(=O)NC3CCC(C(F)(F)F)N(C)C3)C4)n[nH]2)c(F)cn1 (mixture of isomers) [Example 306-A] | 13.9 nM | 78.8 nM | – |
| COc1cc(-c2cc(C(=O)N3[C@@H]4CC[C@H]3C[C@H](C(=O)NC3CCC5(CC3)OCC5(F)F)C4)n[nH]2)c(F)cn1 (mixture of isomers) [Example 307, (1R,3s,5S)—N-(3,3-difluoro-1-oxaspiro[3.5]nonan-7-yl)-8-(5-(5-fluoro-2-methoxypyridin-4-yl)-1H-pyrazole-3-carbonyl)-8-azabicyclo[3.2.1]octane-3-carboxamide] | 22.1 nM | 173 nM | – |
